Data as given in publication PMC11443518, “Undescribed Amaryllidaceae Alkaloids from Zephyranthes citrina and Their Cytotoxicity” (Journal of Natural Products, 2024).
Read-outs that look alike come from different tables or passages of the source.

Assays:
[1] = molecular target: T1, hBChE (Homo sapiens, UniProt P06276); assay: biochemical; format: biochemical; details: recombinant BChE, Ellman, 37 °C
T1 construct: purchased University Hradec Kralove, Department of Chemistry, Faculty of Science
Description: (§1) The hAChE and hBChE activities were determined using a modified method of Ellman, as described by Hrabinova and co-workers against recombinant AChE and recombinant BChE (purchased from University Hradec Kralove, Department of Chemistry, Faculty of Science).[43] Other used chemicals were phosphate buffer solution (PBS, pH = 7.4), 5,5′-dithio-bis(2-nitrobenzoic) acid (Ellman’s reagent, DTNB), acetylthiocholine iodide (ATChI), butyrylthiocholine iodide (BTChI), and dimethyl sulfoxide (DMSO) (all chemicals were purchased from Sigma-Aldrich, Prague, Czech Republic).
(§2) Briefly, 8.3 μL of the corresponding enzyme, 283 μL of 5 mM DTNB, and 8.3 μL of the sample dilution in DMSO in different concentrations were added to the microplate. These solutions were incubated for 5 min at 37 °C. Then, 33.3 μL of 10 mM substrate (ATChI or BTChI) was added to initiate the reaction, and the whole reaction mixture was incubated for 2 min at 37 °C. […] This difference after 1 min was used to calculate the percentage of inhibitory potential of the given derivative. Each measurement was repeated three times for every concentration of the compound. 8.3 μL DMSO was used as a blank. The % inhibition was calculated according to the following formula: [drawing 3] where ΔABl is the increase of absorbance of the blank sample and ΔASa is the increase of absorbance of the measured sample.

[2] = molecular target: T2, hAChE (Homo sapiens, UniProt P22303); assay: biochemical; format: biochemical; details: recombinant AChE, Ellman, 37 °C
T2 construct: purchased University Hradec Kralove, Department of Chemistry, Faculty of Science
Description: as §1, §2

[3] = tested on: MCF-7 (breast adenocarcinoma); assay: WST-1 cell proliferation assay, cytotoxicity screening; format: cell-based, human; details: for activity at 10 µM: Homo sapiens, read-out: growth percent (GP) MCF-7
Source text: (§3) Selected human tumor and nontumor cell lines Jurkat (acute T-cell leukemia), MOLT-4 (acute lymphoblastic leukemia), A549 (lung carcinoma), HT-29 (colorectal adenocarcinoma), PANC-1 (pancreas epithelioid carcinoma), A2780 (ovarian carcinoma), HeLa (cervix adenocarcinoma), MCF-7 (breast adenocarcinoma), SAOS-2 (osteosarcoma) and MRC-5 (nontumor lung fibroblasts) were purchased from European Collection of Authenticated Cell Cultures (ECACC, Salisbury, UK) and cultured according to the provider’s culture method guidelines. […] The cells in low passage number (nontumor primary cell line MRC-5 was used for a maximum of 10 passages and cancer cell lines were used for a maximum of 20 passages) and in an exponential growth phase were used for this study.
(§4) Each cell line was seeded at a previously established optimal density (1 × 10^3 to 50 × 10^3 cells per well) in a 96-well plate (TPP, Trasadingen, Switzerland) and cells were allowed to settle overnight. During screening tests for cytotoxicity, cells were treated with alkaloids at a final concentration of 10 μM for 48 h. Doxorubicin (Sigma-Aldrich, St. Louis, USA), at a concentration of 1 μM, was used as a positive control. At the end of the culture period, the WST-1 proliferation assay (Roche, Basel, Switzerland) was performed according to the manufacturer’s protocol. The absorbance was determined using a Tecan Spark microplate reader (Tecan, Männedorf, Switzerland). Each value is the mean of three independent experiments and represents the percentage of the proliferation of control, nontreated cells (100%). The growth percent (GP) value as the mean of the proliferation decrease was calculated for each cell line and derivative tested.

[4] = tested on: MOLT-4 (acute lymphoblastic leukemia); assay: as above; format: cell-based, human; details: for activity at 10 µM: Homo sapiens, read-out: growth percent (GP) MOLT-4
Source text: as §3, §4

[5] = tested on: nine human tumor and one nontumor cell lines; assay: Cytotoxicity screening across the whole panel of cell lines; format: cell-based; details: for activity at 10 µM: Homo sapiens, read-out: GP value across the tested cell lines
Source text: Concerning the cytotoxicity of alkaloids isolated from Z. citrina, initially, Prakash and Vedanayaki investigated the MeOH extract of the bulbs for its in vitro cytotoxic activity using the MTT assay against three human cancer cell lines from different tissue origins: cervical cancer (HeLa), breast cancer (MCF-7), and oral squamous carcinoma (SCC-9). […] In this context, and to assess potential negative effects on human cell cultures, compounds 1, and 3–27 were screened in our study for cytotoxicity using a 10 μM single-dose regimen. The results were compared with those using the clinically approved antineoplastic agent doxorubicin at 1 μM. The effect on cell growth was investigated on nine human tumor and one nontumor cell lines, namely Jurkat (acute T-cell leukemia), MOLT-4 (acute lymphoblastic leukemia), A549 (lung carcinoma), HT-29 (colorectal adenocarcinoma), PANC-1 (pancreas epithelioid carcinoma), A2780 (ovarian carcinoma), HeLa (cervix adenocarcinoma), MCF-7 (breast adenocarcinoma), SAOS-2 (osteosarcoma) and MRC-5 (nontumor lung fibroblasts). […] No toxicity is valuable information, especially for compound 18, as it is a potent inhibitor of hAChE and hBChE.[27]
Selected human tumor and nontumor cell lines Jurkat (acute T-cell leukemia), MOLT-4 (acute lymphoblastic leukemia), A549 (lung carcinoma), HT-29 (colorectal adenocarcinoma), PANC-1 (pancreas epithelioid carcinoma), A2780 (ovarian carcinoma), HeLa (cervix adenocarcinoma), MCF-7 (breast adenocarcinoma), SAOS-2 (osteosarcoma) and MRC-5 (nontumor lung fibroblasts) were purchased from European Collection of Authenticated Cell Cultures (ECACC, Salisbury, UK) and cultured according to the provider’s culture method guidelines. All cell lines were maintained at 37 °C in a humidified 5% carbon dioxide and 95% air incubator. The cells in low passage number (nontumor primary cell line MRC-5 was used for a maximum of 10 passages and cancer cell lines were used for a maximum of 20 passages) and in an exponential growth phase were used for this study.
as §4

[6] = tested on: A549 (lung carcinoma); assay: WST-1 cell proliferation assay, cytotoxicity screening; format: cell-based; details: Homo sapiens, read-out: growth percent (GP) A549
Source text: as §3, §4

[7] = tested on: HeLa (cervix adenocarcinoma); assay: as above; format: cell-based; details: Homo sapiens, 48 h, read-out: growth percent (GP) HeLa
Source text: as §3, §4

[8] = tested on: MRC-5 (nontumor lung fibroblasts); assay: as above; format: cell-based; details: Homo sapiens, read-out: growth percent (GP) MRC-5
Source text: as §3, §4

[9] = tested on: PANC-1 (pancreas epithelioid carcinoma); assay: as above; format: cell-based; details: Homo sapiens, read-out: growth percent (GP) PANC-1
Source text: as §3, §4

[10] = tested on: A2780 (ovarian carcinoma); assay: as above; format: cell-based; details: Homo sapiens, read-out: growth percent (GP) A2780
Source text: as §3, §4

[11] = tested on: HT-29 (colorectal adenocarcinoma); assay: as above; format: cell-based; details: Homo sapiens, read-out: growth percent (GP) HT-29
Source text: as §3, §4

[12] = tested on: SAOS-2 (osteosarcoma); assay: as above; format: cell-based; details: Homo sapiens, read-out: growth percent (GP) SAOS-2
Source text: as §3, §4

[13] = tested on: Jurkat (acute T-cell leukemia); assay: as above; format: cell-based; details: Homo sapiens, 48 h, read-out: growth percent (GP) Jurkat
Source text: as §3, §4

[14] = MCF7, c = 10 μM, 48 h, % of proliferation of nontreated control
[15] = MOLT-4, c = 10 μM, 48 h, % of proliferation of nontreated control
[16] = 10 μM single dose, 48-h interval, all tested cell lines
[17] = A549, c = 10 μM, 48 h, % of proliferation of nontreated control
[18] = c = 10 μM, % of proliferation of nontreated control
[19] = MRC5, c = 10 μM, 48 h, % of proliferation of nontreated control
[20] = PANC-1, c = 10 μM, 48 h, % of proliferation of nontreated control
[21] = A2780, c = 10 μM, 48 h, % of proliferation of nontreated control
[22] = HT-29, c = 10 μM, 48 h, % of proliferation of nontreated control
[23] = SAOS-2, c = 10 μM, 48 h, % of proliferation of nontreated control
[24] = c = 10 μM, 48 h, % of proliferation of nontreated control

T2 sequence (P22303 32-614): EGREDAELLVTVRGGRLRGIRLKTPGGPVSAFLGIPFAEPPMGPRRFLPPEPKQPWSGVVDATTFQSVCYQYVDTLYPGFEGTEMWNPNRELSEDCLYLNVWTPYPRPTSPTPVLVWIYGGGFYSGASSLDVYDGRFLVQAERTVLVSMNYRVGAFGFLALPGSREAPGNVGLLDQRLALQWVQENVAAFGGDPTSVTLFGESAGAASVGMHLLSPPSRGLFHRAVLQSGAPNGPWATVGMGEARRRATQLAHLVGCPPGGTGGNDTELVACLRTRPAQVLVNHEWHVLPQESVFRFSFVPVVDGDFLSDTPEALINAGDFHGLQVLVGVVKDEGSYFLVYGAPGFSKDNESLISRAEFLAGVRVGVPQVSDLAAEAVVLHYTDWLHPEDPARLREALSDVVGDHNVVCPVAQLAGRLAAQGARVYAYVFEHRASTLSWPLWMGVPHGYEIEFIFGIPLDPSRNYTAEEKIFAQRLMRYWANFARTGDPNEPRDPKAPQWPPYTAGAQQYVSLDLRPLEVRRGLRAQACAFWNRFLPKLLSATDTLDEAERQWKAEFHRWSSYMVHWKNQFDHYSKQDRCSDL
T1 sequence (P06276 29-602): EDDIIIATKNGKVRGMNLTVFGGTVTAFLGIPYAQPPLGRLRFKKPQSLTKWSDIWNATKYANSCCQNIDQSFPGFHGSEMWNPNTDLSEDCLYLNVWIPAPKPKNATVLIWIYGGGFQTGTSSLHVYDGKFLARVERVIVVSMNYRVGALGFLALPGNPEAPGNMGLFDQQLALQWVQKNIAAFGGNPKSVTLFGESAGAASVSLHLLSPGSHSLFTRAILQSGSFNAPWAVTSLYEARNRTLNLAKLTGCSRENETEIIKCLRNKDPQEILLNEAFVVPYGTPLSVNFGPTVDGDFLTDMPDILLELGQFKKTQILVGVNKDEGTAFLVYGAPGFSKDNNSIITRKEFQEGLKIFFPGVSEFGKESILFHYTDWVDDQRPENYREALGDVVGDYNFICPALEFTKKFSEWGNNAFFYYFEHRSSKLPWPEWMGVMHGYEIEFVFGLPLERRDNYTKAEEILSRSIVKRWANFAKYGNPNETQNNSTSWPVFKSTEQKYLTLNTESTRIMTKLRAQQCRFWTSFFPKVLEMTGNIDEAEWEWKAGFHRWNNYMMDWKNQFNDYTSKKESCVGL

Row | Compound | activity at 10 µM ([3]; MCF7, 48 h) | activity at 10 µM ([4]; MOLT-4, 48 h) | activity at 10 µM ([5]; 48 h) | activity at 10 µM ([6]; A549, 48 h) | activity at 10 µM [7] | activity at 10 µM ([8]; MRC5, 48 h) | activity at 10 µM ([9]; PANC-1, 48 h) | activity at 10 µM ([10]; A2780, 48 h) | activity at 10 µM ([11]; HT-29, 48 h) | activity at 10 µM ([12]; SAOS-2, 48 h) | activity at 10 µM [13] | also measured
1 | COc1cc2c(cc1OC)[C@@H]1[C@H](O)[C@@H](OC)[C@H](O)C3=CCN(C2=O)[C@H]31 [Compound 2, 6-oxonarcissidine] | – | – | – | – | – | – | – | – | – | – | – | IC50 [1]: > 100 µM; IC50 [2]: > 100 µM
2 | COc1cc2c(cc1O)C(=O)O[C@@H]1CC=C3CCN(C)[C@H]3[C@H]21 [Compound 22] | 102% | 100% | > 50% | 109% | 96% | 93% | 92% | 94% | 106% | 103% | 100% | –
3 | COc1cc2c(cc1O)[C@@H]1[C@H](O)[C@@H](OC)C=C3CCN(C2)[C@H]31 [Compound 25] | – | – | – | – | – | – | – | – | – | – | – | activity at 10 µM [3, 14]: 102%; activity at 10 µM [4, 15]: 88%; activity at 10 µM [5, 16]: > 50%; activity at 10 µM [6, 17]: 83%; activity at 10 µM [7, 18]: 110%; activity at 10 µM [8, 19]: 92%; activity at 10 µM [9, 20]: 83%; activity at 10 µM [10, 21]: 125%; activity at 10 µM [11, 22]: 94%; activity at 10 µM [12, 23]: 71%; activity at 10 µM [13, 18]: 91%
4 | COc1cc2c(cc1OC)[C@@]13C=CC(O)C[C@@H]1N(CC3)C2 (some centres unmarked) [Compound 15, maritidine] | 98% | 100% | > 50% | 95% | 101% | 104% | 91% | 94% | 93% | 94% | 104% | GP value across the tested cell lines [5, 16]: lack of inhibitory activity
5 | COc1cc(-c2cccc3c2N(C)CC3)c(CN2CC[C@@]34C=C[C@H](O)C[C@@H]3Oc3c(OC)ccc(c34)C2)c(OC)c1OC [Compound 18, narcielline] | 115% | 95% | > 50% | 110% | 90% | 111% | 111% | 88% | 106% | 106% | 103% | –
6 | COC1C=C[C@@]23CCN(Cc4cc5c(cc42)OCO5)[C@@H]3C1 (some centres unmarked) [Compound 17] | 49% | 32% | > 50% | 60% | 75% | 82% | 77% | 55% | 71% | 76% | 52% | growth percent (GP) MCF-7 [3, 24]: slight inhibition of growth; growth percent (GP) MOLT-4 [4, 24]: slight inhibition of growth
7 | COc1cc2c(c(OC)c1OC)[C@@H](O)O[C@@H]1CC=C3CCN(C)[C@H]3[C@H]21 [Compound 21] | – | – | – | – | – | – | – | – | – | – | – | activity at 10 µM [3, 14]: 92%; activity at 10 µM [4, 15]: 93%; activity at 10 µM [5, 16]: > 50%; activity at 10 µM [6, 17]: 101%; activity at 10 µM [7, 18]: 112%; activity at 10 µM [8, 19]: 101%; activity at 10 µM [9, 20]: 90%; activity at 10 µM [10, 21]: 95%; activity at 10 µM [11, 22]: 83%; activity at 10 µM [12, 23]: 105%; activity at 10 µM [13, 18]: 91%
8 | COc1cc2c(cc1OC)[C@@H]1[C@H](O)[C@@H](O)C=C3CCN(C2)[C@H]31 [Compound 24] | 104% | 103% | > 50% | 104% | 116% | 96% | 109% | 99% | 114% | 98% | 109% | –
9 | COc1cc2c(cc1O)CN1CC[C@@]23C=CC(O)C[C@H]13 (some centres unmarked) [Compound 16] | 105% | 110% | > 50% | 106% | 114% | 97% | 101% | 101% | 103% | 98% | 102% | –
10 | COc1cc2c(cc1OC)[C@@]13CC[C@H](OC)C[C@@H]1N(CC3)C2O (some centres unmarked) [Compound 9, zephyranine E] | 108% | 79% | > 50% | 95% | 106% | 100% | 98% | 111% | 95% | 77% | 96% | –
